From paper PMC4045308 (Investigational New Drugs, 2013)
“And” between values parts separate entries of the source, which are not always exact repeats. Equal values may be shown once. Read-outs that look alike come from different tables or passages of the source. Marks after values point to notes of the source that are not given here.

Tests used:
[1] = in vivo
[2] = phase I study: adverse events (NCI-CTCAE v3.0)
[3] = phase I study: plasma pharmacokinetics; type: in vivo, patients; conditions: for AUC(0-t) / Tmax / half-life: human, plasma, oral; for AUC(0-t): read-out: Geometric mean AUC0–tlast (CV, %); for Tmax: read-out: Median Tmax (range)
Source text: PK parameters included: area under the plasma concentration versus time curve, maximum plasma concentration, time to maximum plasma concentration (Tmax), terminal half-life (t1/2), accumulation ratio (Rac), and peak/trough ratio. Secondary endpoints were response rate, duration of response, and evaluation of banked tumor tissue samples for AAK protein expression and gene amplification.
Plasma samples were collected in cycle 1 at various time points on the first day (day 1) and last day (day 7, ECT 7-day schedule; day 14, PIC or ECT 14-day schedules; day 21, PIC 21-day schedule) of treatment. PK parameters were calculated by non-compartmental analysis using WinNonlin software (v5.2.1, Pharsight Corporation, Cary, NC).

AAK [4] = conditions: cell-based assays; cited from earlier work
xenograft MM model = conditions: cited from earlier work
[5] = twice-daily (BID), 7-day schedule in 21-day cycles, solid tumors; cited from earlier work
[6] = tested on: aggressive B- and T-cell NHL; conditions: 50 mg BID, cited from earlier work
PTCL cell lines = conditions: cited from earlier work
[7] = cited from earlier work
mantle cell lymphoma = conditions: cited from earlier work
Aurora B kinase = conditions: cell-based assays; cited from earlier work
AAK [8] = conditions: read-out: inhibition constant (Ki); cited from earlier work
[9] = tested on: multiple myeloma (MM) cells; conditions: in vitro; cited from earlier work
[10] = phase I study: DLTs and MTD
Protocol: Dosing schedules are summarized in Supplementary Fig. S1 (online only). The PIC formulation starting dose was 25 or 35 mg/day. […] For the ECT formulation, the starting dose was 40 mg/day QD for 14 days followed by 14 days’ rest in 28-day cycles.
If 2 of the first 3–6 patients experienced DLTs at a given dose level, dose escalation was delayed while the available safety/clinical data were assessed and a decision made on how to proceed with a modified dose or schedule. […] The use of myeloid growth factors (G-CSF or GM-CSF) or erythropoiesis-stimulating agents was permitted after the DLT evaluation period was completed (cycle 1) and on a case-by-case basis after cycle 2. Treatment continued for up to 12 months, or until disease progression or unacceptable toxicity, with the possibility of treatment extension beyond 12 months if clinical benefit was evident and toxicities were manageable.

[11] = tested on: advanced heme-lymphatic malignancies (MM, NHL, CLL); assay: phase I study: antitumor response; type: in vivo, patients
Protocol: Response was evaluated according to the International Working Group criteria for patients with lymphoma, the International Myeloma Working Group uniform response criteria for patients with MM [28], and the International Workshop on CLL guidelines.

[12] = 30 mg, ECT 30 mg BID, 7-day schedule, Day 1, first dose, N 3
[13] = 30 mg, ECT 30 mg BID, 7-day schedule, Day 7, N 3
[14] = 40 mg, ECT 40 mg BID, 7-day schedule, Day 1, first dose, N 9
[15] = 40 mg, ECT 40 mg BID, 7-day schedule, Day 7, N 8
[16] = 50 mg, ECT 50 mg BID, 7-day schedule, Day 7, N 7

Compound: COc1cc(Nc2ncc3c(n2)-c2ccc(Cl)cc2C(c2c(F)cccc2OC)=NC3)ccc1C(=O)O [MLN8237, alisertib]
- on-study deaths considered treatment-related [1]: none
- patients reporting drug-related AEs ([2]; N = 58): 90%
- grade 3 or higher febrile neutropenia, frequency ([2]; all cohorts): 9%
- grade ≥3 drug-related anemia, patients ([2]; all cohorts, N = 58): 19%
- grade ≥3 drug-related leukopenia, patients ([2]; all cohorts, N = 58): 19%
- grade ≥3 drug-related neutropenia, patients ([2]; all cohorts, N = 58): 45%
- grade ≥3 drug-related thrombocytopenia, patients ([2]; all cohorts, N = 58): 28%
- Alopecia, drug-related AE, All grades ([2]; all doses and schedules): 15 (26) n (%)
- Anemia, drug-related AE, All grades ([2]; all doses and schedules): 19 (33) n (%)
- Anemia, drug-related AE, Grade ≥3 ([2]; all doses and schedules): 11 (19) n (%)
- Decreased WBC count, drug-related AE, All grades ([2]; all doses and schedules): 5 (9) n (%)
- Decreased WBC count, drug-related AE, Grade ≥3 ([2]; all doses and schedules): 3 (5) n (%)
- Diarrhea, drug-related AE, All grades ([2]; all doses and schedules): 20 (34) n (%)
- Diarrhea, drug-related AE, Grade ≥3 ([2]; all doses and schedules): 1 (2) n (%)
- Fatigue, drug-related AE, All grades ([2]; all doses and schedules): 15 (26) n (%)
- Fatigue, drug-related AE, Grade ≥3 ([2]; all doses and schedules): 2 (3) n (%)
- Febrile neutropenia, drug-related AE, All grades ([2]; all doses and schedules): 5 (9) n (%)
- Febrile neutropenia, drug-related AE, Grade ≥3 ([2]; all doses and schedules): 5 (9) n (%)
- Leukopenia, drug-related AE, All grades ([2]; all doses and schedules): 13 (22) n (%)
- Leukopenia, drug-related AE, Grade ≥3 ([2]; all doses and schedules): 11 (19) n (%)
- Lymphopenia, drug-related AE, All grades ([2]; all doses and schedules): 8 (14) n (%)
- Lymphopenia, drug-related AE, Grade ≥3 ([2]; all doses and schedules): 4 (7) n (%)
- Nausea, drug-related AE, All grades ([2]; all doses and schedules): 12 (21) n (%)
- Neutropenia, drug-related AE, All grades ([2]; all doses and schedules): 33 (57) n (%)
- Neutropenia, drug-related AE, Grade ≥3 ([2]; all doses and schedules): 26 (45) n (%)
- Somnolence, drug-related AE, All grades ([2]; all doses and schedules): 6 (10) n (%)
- Stomatitis, drug-related AE, All grades ([2]; all doses and schedules): 7 (12) n (%)
- Stomatitis, drug-related AE, Grade ≥3 ([2]; all doses and schedules): 1 (2) n (%)
- Thrombocytopenia, drug-related AE, All grades ([2]; all doses and schedules): 24 (41) n (%)
- Thrombocytopenia, drug-related AE, Grade ≥3 ([2]; all doses and schedules): 16 (28) n (%)
- Vomiting, drug-related AE, All grades ([2]; all doses and schedules): 8 (14) n (%)
- On-study deaths ([2]; during treatment or within 30 days of last dose): 6 (10 %) n (%) and 6 (10) n (%)
- discontinued treatment due to drug-related bullous dermatitis ([2]; in vivo): 1 n
- discontinued treatment due to drug-related confusion ([2]; in vivo): 1 n
- discontinued treatment due to drug-related thrombocytopenia ([2]; in vivo): 4 n
- tolerability ([2]; patients with advanced heme-lymphatic malignancies): generally well tolerated
- Any AE resulting in discontinuation ([2]; safety population): 9 (16 %) n (%) and 9 (16) n (%)
- Any drug-related AE ([2]; safety population): 52 (90) n (%)
- Any drug-related grade ≥3 AE ([2]; safety population): 35 (60 %) n (%) and 35 (60) n (%)
- Any treatment-emergent AE ([2]; safety population): 58 (100) n (%)
- Any treatment-emergent grade ≥3 AE ([2]; safety population): 46 (79) n (%)
- Any treatment-emergent serious AE ([2]; safety population): 28 (48) n (%)
- Geometric mean CLss/F (CV, %) ([3]; ECT 30 mg BID, 7-day schedule, Day 7, N 3): 3.7 (0.7) L/h
- Geometric mean CLss/F (CV, %) ([3]; ECT 40 mg BID, 7-day schedule, Day 7, n=7): 4.4 (1.9) ^† L/h
- Geometric mean CLss/F (CV, %) ([3]; ECT 50 mg BID, 7-day schedule, Day 7, N 7): 6.7 (5.6) L/h
- Mean CLss/F ([3]; all formulations, CV 69 %, n = 42): 4.8 L/h
- AUC(0-t) [3, 12]: 5.52 µM·h
- Tmax [3, 12]: 2 h
- AUC(0-t) [3, 13]: 16 µM·h
- Tmax [3, 13]: 2 h
- half-life ([3]; 30 mg, ECT 30 mg BID, 7-day schedule, Day 7, n=1, read-out: Mean t1/2 (sd) (converted)): 13.3 h
- AUC(0-t) [3, 14]: 7.09 µM·h
- Tmax [3, 14]: 2.2 h
- AUC(0-t) [3, 15]: 18.6 µM·h
- Tmax [3, 15]: 2 h
- half-life ([3]; 40 mg, ECT 40 mg BID, 7-day schedule, Day 7, n=4, read-out: Mean t1/2 (sd) (converted)): 19.9 h
- Tmax ([3]; 50 mg, ECT 50 mg BID, 7-day schedule, Day 1, first dose, N 10): 2 h
- AUC(0-t) ([3]; 50 mg, ECT 50 mg BID, 7-day schedule, Day 1, first dose, n=9): 9.73 µM·h
- AUC(0-t) [3, 16]: 17.9 µM·h
- Tmax [3, 16]: 2 h
- half-life ([3]; 50 mg, ECT 50 mg BID, 7-day schedule, Day 7, n=5, read-out: Mean t1/2 (sd) (converted)): 18.4 h
- half-life ([3]; multiple-dose administration, PIC and ECT, read-out: overall mean steady-state t1/2 (terminal half-life) (converted)): ~19 h
- half-life ([3]; multiple-dose administration, PIC and ECT, read-out: steady-state t1/2, range): 10 to 43 h
- overall survival (xenograft MM model; P = 0.0044): significantly increased
- tumor burden (xenograft MM model; P = 0.007): significantly reduced
- maximum tolerated dose (MTD) [5]: 50 mg
- CR ([6]; 48 treated patients): 10%
- PR ([6]; 48 treated patients): 17%
- overall response rate ([6]; 48 treated patients): 27%
- patients achieving SD ([6]; 48 treated patients): 33%
- patients with T-cell lymphoma who had a response [6]: 4/8
- effect on PTCL cell lines (PTCL cell lines): induces endo-reduplication and apoptosis
- aqueous solubility [7]: low
- tumor growth (mantle cell lymphoma): inhibit tumor growth
- Ki (AAK [8]): 0.43 nM
- effect on MM cells [9]: mitotic spindle abnormalities, mitotic accumulation, and apoptosis
- MTD ([10]; ECT 7-day schedule, BID): 50 mg
- MTD ([10]; PIC 14-day schedule, QD): 45 mg
- recommended phase II dose ([10]; human, in vivo, 7 days): 50 mg
- patients achieving partial response (PR) ([11]; 47 response-evaluable patients): 13%
- patients with partial response (PR) ([11]; 47 response-evaluable patients): 6 patients
- patients discontinued due to progressive disease ([11]; N = 58): 64%
